# Legend:
# water solubility = format: physicochemical
# Excerpt: RHPS4 was synthesized as described (Heald et al 2002). RHPS4 is water-soluble and was therefore dissolved in phosphate buffered saline (PBS). For in vitro studies paclitaxel (Taxol) was purchased from Sigma (St. Louis, Mo.) and dissolved in dimethylsulfoxide (DMSO); for in vivo experiments the clinical formulation was used and obtained Cremophor from Bristol-Myers Squibb, New York, N.Y.
# UXF1138L tumor tissue = test: HTCA/clonogenic growth of in vivo treated xenograft tissue; design: species or system nude mice; details: for HTCA growth [%]: control set 100%
# Method: Upon termination of the experiment, which was when tumors reached a volume of 1.5 cm in diameter (day 28), RHPS4 treated tumor tissue and control tumors were excised, minced and digested using a mixture of collagenase (123 U/ml), DNase (375 U/ml), and hyaluronidase (290 U/ml) in RPMI 1640 medium at 37° C. for 3 hrs. All enzymes were purchased from Roche, Indianapolis Ind.). Primary cultures as well as clonogenic growth assays were prepared from the resulting single cell suspensions. Primary cultures were used for analysis of telomere length. In addition, RHPS4 treated tumors (5 mg/kg/d) and control were propagated into new animals for up to three times. The control mouse group was always derived from untreated tumor fragments, but from the same initial passage as were the RHPS4 treated tumors (FIG. 1B).
# (§1) In human tumor stem cell assay (HTCA)/clonogenic assay, single cell suspensions from in vivo studies above were washed in medium and passed through sieves and the resulting single cell suspensions seeded into soft agar (n=3 tumors per group) as described by us before (Fiebig et al., 2004). Single cell suspensions of cell lines were prepared by trypsinization from cells growing as monolayers on plastic. Briefly, 5,000 (HEK293T cells), 10,000 (PC3, MCF-7 and UXF1138L cells) or 50,000 (UXF1138L tumor tissue) vital cells were added to 0.2 ml Iscove's medium/20% fetal bovine serum/0.05% gentamycin containing 0.4% agar and plated on top of a base layer consisting of 0.2 ml medium with 0.75% agar. The next day, the agar layers were fed with Isocve's medium and cultures incubated at 37° C., 7% CO2 for approximately 11 days. Vital colonies were stained with 2-(4-iodophenyl)-3-(4-nitrophenyl)-5-phenyltetrazolium chloride (1 mg/ml) 24 hrs before evaluation, and colonies >70 μm were counted with an automated image analysis system (Omincon FAS IV, BIOSYS GmbH, Karben, Germany). Drug effect was assessed as growth inhibitory concentrations 50 and 70% (IC50, IC70). Methylcellulose was used to grow cord blood stem cells instead of soft agar. The seeding density was 20,000 cells/well. Stem cell growth factor supplemented and optimized methylcellulose (Methocult H4434) was purchased from Stem Cell Technologies (Vancouver, CA). Methylcellulose lacking growth factors was used as negative growth control. Statistical significance between treatment groups was evaluated by using the Student T-test.
# [1] = tested on: HEK293T human embryonic kidney cells; test: HTCA colony assay on normal embryonic kidney cells; format: cell-based
# Method: as §1
# To assess RHPS4 effects on normal stem cells, the human embryonic kidney cell line HEK293T was exposed to drug in the MTT and HTCA assays, and tested RHPS4 effects on colony forming units of the mononuclear cell fraction of human cord blood in methyl cellulose (FIG. 2C). The cord blood colony assay was performed with and without colony stimulating growth factors, only methylcellulose containing growth factors grew colonies. […] Additionally, in normal cell types as compared to tumor cells, low and pharmacodynamically relevant concentrations of RHPS4 (0.01 to 1 microM) did induce colony formation (FIG. 2C). To assure that the induction of colony growth by RHPS4 in normal stem cells is reproducible, cord blood from three different individuals and HEK293T cells from different passages were used. Data shown in FIG. 2C represent the mean and standard deviation from three independent experiments. […] However, the plating efficiency (actual number of colonies growing per total number of cells seeded) varied among the experiments and therefore the results are shown as % of control growth. E.g. HEK293T control colony growth ranged from a mean number of 54 to 463 colonies per well, but the least percentage (cut-off level) of growth induction by RHPS4 observed in either, the individual HEK293T or the cord blood experiments, was 150%. […] Instead, at RHPS4 levels that induced colony growth 2.4-fold (1 mircoM), bulk cell growth was inhibited to 60% of control (FIG. 2C).
# UXF1138L cells = test: MTT proliferation assay (bulk cells); format: cell-based, human; details: 5 day, read-out: IC50 growth inhibition of the bulk population by MTT assay
# Method: (§2) The growth inhibitory activity of RHPS4 in human bulk tumor cells have been compared, by MTT assay, against RHPS4 activity in tumor cells grown as colonies in the clonogenic assay, also termed the human tumor stem cell assay (HTCA) (FIG. 2A-B). HEK293T human embryonic kidney cells grown in the HTCA, and cord blood cells cultured in methylcellulose were also treated with RHPS4 (FIG. 2C). The MTT assay is a 5 day proliferation test measuring effects on a morphologically heterogeneous, differentiated cell population (bulk cells), whereas the HTCA and methylcellulose assays are longer term (10-15 day) tests in which only a very small fraction of a bulk culture (˜0.1-1%) will grow as colonies. Cells growing anchorage-independently as colonies in a semi-solid matrix are considered to be pluripotent stem cells (Hamburger & Salmon, 1977; Locke et al., 2005; Fiebig et al. 2004). […] Similar observations were made with the breast cancer cell line MCF-7 (shown in FIG. 2B, HTCA IC50=0.04 microM; bulk cell IC50=2 microM).
# MCF-7 cells = test: MTT proliferation assay (bulk cells); format: cell-based, human; details: MCF-7, 5 day; read-out: IC50 bulk cell / whole cell population by MTT assay
# Method: as §2
# PC3 cells = test: MTT proliferation assay (bulk cells); format: cell-based, human; details: PC3, 5 day; read-out: IC50 growth inhibition of the bulk population by MTT assay
# Method: as §2
smiles,measurement,setting,value
"COS(=O)(=O)[O-].Cc1cc2c3c([n+](C)c4ccc(F)cc4c3c1)-c1cc(F)ccc1N2C [RHPS4, 3,11-difluoro-6,8,13-trimethyl-8H-quino[4,3,2-kl]acridinium methosulfate]",solubility in water,water solubility,water-soluble
same,inhibition of colony forming units in the same tumor tissues,UXF1138L tumor tissue; Passage 3,54%±6.6
same,HTCA growth [%],UXF1138L tumor tissue; Passage #1,83 ± 2.3%
same,HTCA growth [%],UXF1138L tumor tissue; Passage #2,93 ± 2.3%
same,HTCA growth [%],UXF1138L tumor tissue; Passage #3,54.5 ± 6.6%
same,HTCA growth [%],UXF1138L tumor tissue; Passage #4,44 ± 6.4%
same,clonogenicity of RHPS4 treated tumor tissue in soft agar tumor stem cell assay,UXF1138L tumor tissue; passages 1-4,marked reduction in clonogenicity
same,concentrations that markedly inhibited tumor colony forming units and induced cord blood and HEK293T colony growth,[1],0.1-1 mircoM
same,sensitivity of cord blood and HEK293T colony forming units versus tumor cell colonies,[1],over a log-fold less sensitive
same,"stimulation of growth, number of colonies compared to vehicle","[1]; 0.1 and 1 mircoM RHPS4, HEK293T",doubling to tripling the number of colonies
same,induction of colony growth,"[1]; 1 mircoM RHPS4, HEK293T",2.4 fold
same,drug concentration at which cell kill of normal stem cells was seen,[1]; HEK293T colony forming units,~10 mircoM
same,concentrations inhibiting normal colony formation above those inhibiting tumor cell colony formation,[1]; human embryonic kidney and cord blood vs tumor cells,over 25 fold
same,RHPS4 concentrations that inhibited colony formation,[1]; human embryonic kidney cells,> 1 mircoM
same,least percentage (cut-off level) of growth induction,"[1]; individual HEK293T experiments, % of control growth",≥ 150%
same,IC50,UXF1138L cells,400 nM
same,IC50,MCF-7 cells,2000 nM
same,IC50,PC3 cells,1800 nM
